Consider 15 compounds from patent US5017619A, “Phenethanolamine derivatives” (Hoffmann-La Roche Inc., priority 1985, dated 1991).

Molecules are shown by their SMILES. Read-outs that look alike come from different tables or passages of the source.

Experiment [1] relates to male albino rats. Description: Activity on oxygen consumption. In kind it is in vivo. The following applies: rat, per os, corrected for placebo group; for response vs control in vivo at 1 µM, 1 µmol/kg / response vs control in vivo at 0.3 µM, 0.3 µmol/kg / response vs control in vivo at 3 µM, 3 µmol/kg: po; for response vs control in vivo at 1 µM, 1 µmol/kg: 1 μM/kg; for response vs control in vivo at 3 µM, 3 µmol/kg: 3 μM/kg. Here is the method:
(1) Activity on oxygen consumption
Male albino rats weighing 160-180 g were placed in metabolic cages after fasting for 24 hours. The cages were ventilated with a constant 6 liter room air/minute which was equilibrated at a dew point of 11° C. Samples of the spent air were collected during periods of in each case 14 minutes after again equilbrating and the oxygen content and CO2 content were analyzed. After an adaptation time of 4 hours the animals, divided into groups of 6, received either placebo (5% gum arabic) or the test substance (suspended in 5% gum arabic) per os. Thereafter, the determinations were carried out for a period of 12 hours. In Table I there is given the percentage of the average oxygen consumption after medication during the first 3 hours and the entire test duration (12 hours) of the oxygen consumption of the adaptation period, corresponding corrections for variations in the placebo group having been taken into consideration.

Experiment [2] relates to female hyperglycaemic fat mice. In words: Activity on urine glucose and blood glucose and the formation of brown adipose tissue (obese-hyperglycaemic mice). In kind it is in vivo. The following applies: oral, percentage of control value; for Blood glucose / Brown adipose tissue (weight of interscapular brown adipose tissue): end of 15-day test. Here is the method:
(2) Activity on urine glucose and blood glucose and the formation of brown adipose tissue
Female hyperglycaemic fat mice were adapted to an amount of feed limited to 3 g/day/animal. The test compounds (suspended in 5% gum arabic) or placebo (5% gum arabic) were administered orally twice daily during 15 days. Urine was collected for 6 days a week and urine glucose was determined. Blood glucose and the weight of the interscapular brown adipose tissue were determined at the end of the test.
The test results are given in Table II as a percentage of the control value.

Experiment [3] concerns streptozotocin-diabetic rats. In words: Activity on the urine glucose of streptozotocin-diabetic rats. The conditions noted are these: oral, 90 μM/kg per day, 2nd week of treatment. In kind it is in vivo, albino rats. The method, then: (3) Activity on the urine glucose of streptozotocin-diabetic rats
A diabetes was produced in female albino rats (weight 130-140 g) by the subcutaneous injection of streptozotocin (70 mg/kg). The diabetic animals were adapted to an amount of feed limited to 15 g/day/animal. The test compound (suspended in 5% gum arabic) or placebo (5% gum arabic) was administered orally twice daily. The urine was collected for 6 days a week and urine glucose was determined. The urine glucose excretion of the treated animals during the 2nd week of treatment is given in Table III as a percentage of the control value.

Setting [4] is: 3 h, 1st-3rd hour, read-out: O2 consumption, % of value of the pre-period, 1st-3rd hour.
Setting [5] is: 12 h, 1st-12th hour, read-out: O2 consumption, % of value of the pre-period, 1st-12th hour.
[6] abbreviates: 3 h, 0.3 μM/kg, 1st-3rd hour, read-out: O2 consumption, % of value of the pre-period, 1st-3rd hour.
Where [7] appears, read: 12 h, 0.3 μM/kg, 1st-12th hour, read-out: O2 consumption, % of value of the pre-period, 1st-12th hour.

In the case of `C[C@H](Cc1ccc(OCCOCCc2ccccc2)cc1)N(C[C@H](O)c1ccccc1)C[C@H](O)c1ccccc1` [Example 1, α,α'-[[[(R)-α-methyl-p-[2-(phenethoxy)ethoxy]phenethyl]imino]dimethylene]di-(R)-benzyl alcohol], the response vs control in vivo at 1 µM, 1 µmol/kg amounted to 147% in experiment [1] (setting [4]) and 117% in experiment [1] (setting [5]).
`CCOCCOc1ccc(C[C@@H](C)N(C[C@H](O)c2ccccc2)C[C@H](O)c2ccccc2)cc1` [Example 2a, α,α'-[[[(R)-p-(2-ethoxyethoxy)-α-methylphenethyl]imino]dimethylene]di-(R)-benzyl alcohol]: the response vs control in vivo at 0.3 µM, 0.3 µmol/kg in experiment [1] (setting [6]) came out at 152%; in experiment [1] (setting [7]) it was 114%.
For the compound `COCCOCCOc1ccc(C[C@@H](C)N(C[C@H](O)c2ccccc2)C[C@H](O)c2ccccc2)cc1` [Example 2b], the response vs control in vivo at 1 µM, 1 µmol/kg in experiment [1] (setting [4]) came out at 166%; in experiment [1] (setting [5]) it was 119%.
The like results for `C[C@H](Cc1ccc(OCCOCCc2ccc(F)cc2)cc1)N(C[C@H](O)c1ccccc1)C[C@H](O)c1ccccc1` [Example 2c] were, in that order, 167% and 122%.
The like results for `C[C@H](Cc1ccc(OCCOCc2ccc(Oc3ccccc3)cc2)cc1)N(C[C@H](O)c1ccccc1)C[C@H](O)c1ccccc1` [Example 2e, α,α'-[[[(R)-α-methyl-p-[2-[(p-phenoxybenzyl)oxy]ethoxy]phenethyl]imino]dimethylene]di-(R)-benzyl alcohol] were, in that order, 145% and 116%.
For the compound `CCOCCOc1ccc(CCN(C[C@H](O)c2ccccc2)C[C@H](O)c2ccccc2)cc1` [Example 2f, α,α'-[[[p-(2-ethoxyethoxy)phenethyl]imino]dimethylene]di-(R)-benzyl alcohol], the response vs control in vivo at 1 µM, 1 µmol/kg in experiment [1] (setting [4]) worked out at 142%. The response vs control in vivo at 1 µM, 1 µmol/kg in experiment [1] (setting [5]) came to 112%. Further, in experiment [2] (9 μM/Kg per day), the “Urine glucose 1st week” value amounted to 43%, the “Urine glucose 2nd week” value was 33%, the Blood glucose stood at 51% and the “Brown adipose tissue (weight of interscapular brown adipose tissue)” value (from here on “Brown adipose tissue”) was determined as 158%. Also, in experiment [2] (90 μM/Kg per day), the “Urine glucose 1st week” value is reported as 4.8%, the “Urine glucose 2nd week” value is on record as 0.3%, the Blood glucose is 34% and the “Brown adipose tissue” value was 163%.
For the compound `C[C@H](Cc1ccc(OCCOCCc2ccccc2)cc1)N(C[C@H](O)c1cccc(Cl)c1)C[C@H](O)c1cccc(Cl)c1` [Example 2g1, α,α'-[[[(R)-α-methyl-p-[2-(phenethoxy)ethoxy]phenethyl]imino]dimethylene]bis[(R)-m-chlorobenzyl alcohol]], the results for the response vs control in vivo at 0.3 µM, 0.3 µmol/kg in experiment [1] (setting [6]) and in experiment [1] (setting [7]) were 137% and 117%, respectively.
Turning to `CC(Cc1ccc(OCCOCCc2ccccc2)cc1)N(CC(O)c1cccc(Cl)c1)CC(O)c1cccc(Cl)c1` [Example 2g2, (R)-m-chloro-α-[[[(S)-m-chloro-β-hydroxyphenethyl][(R)-α-methyl-p-[2-phenethoxy)ethoxy]phenethyl]amino]-methyl]benzyl alcohol]], in experiment [1] (setting [4]), the response vs control in vivo at 1 µM, 1 µmol/kg came out at 163%. The response vs control in vivo at 1 µM, 1 µmol/kg in experiment [1] (setting [5]) is 131%. In addition, in experiment [2] (3 μM/Kg per day), the “Urine glucose 1st week” value stood at 17.7%, the “Urine glucose 2nd week” value is given as 2.4%, the Blood glucose was determined as 38% and the “Brown adipose tissue” value stood at 157%. Further, in experiment [2] (30 μM/Kg per day), the “Urine glucose 1st week” value was determined as 1.6%, the “Urine glucose 2nd week” value was determined as 0.6%, the Blood glucose was 33% and the “Brown adipose tissue” value is 144%. Also, the “Urine glucose 2nd week, % of controls” value in experiment [3] amounted to 68%.
Consider `C[C@H](Cc1ccc(OCCOCCc2ccccc2)cc1)N(C[C@@H](O)c1cccc(Cl)c1)C[C@@H](O)c1cccc(Cl)c1` [Example 2g3], for which the figures for the response vs control in vivo at 3 µM, 3 µmol/kg in experiment [1] (setting [4]) and in experiment [1] (setting [5]) were 138% and 119%, respectively.
With `COC(=O)C=CCOc1ccc(C[C@@H](C)N(C[C@H](O)c2ccccc2)C[C@H](O)c2ccccc2)cc1` [Example 4], in experiment [1] (0.3 μM/kg, 1st-3rd hour), the “O2 consumption, % of value of the pre-period, 1st-3rd hour” value amounted to 123%. Also, the “O2 consumption, % of value of the pre-period, 1st-12th hour” value in experiment [1] (0.3 μM/kg, 1st-12th hour) was 110%.
As for `CCOCCOc1ccc(CCN(C[C@H](O)c2cccc(Cl)c2)C[C@H](O)c2cccc(Cl)c2)cc1` [Example 8d, α,α'-[[[p-(2-ethoxyethoxy)phenethyl]imino]dimethylene]bis[(R)-m-chlorobenzyl alcohol]], the response vs control in vivo at 3 µM, 3 µmol/kg in experiment [1] (setting [4]) turned out to be 172%; in experiment [1] (setting [5]), 147%.
With `CCOCCOc1ccc(C[C@@H](C)N(C[C@H](O)c2ccccc2)C[C@H](O)c2cccc(Cl)c2)cc1` [Example 10a1, 3-chloro-α,α'-[[[(R)-p-(2-ethoxyethoxy)-α-methylphenethyl]imino]dimethylene]di-(R)-benzyl alcohol], the results for the response vs control in vivo at 0.3 µM, 0.3 µmol/kg in experiment [1] (setting [6]) and in experiment [1] (setting [7]) were 154% and 117%, respectively.
For the compound `CCOCCOc1ccc(C[C@@H](C)N(C[C@@H](O)c2cccc(Cl)c2)C[C@H](O)c2ccccc2)cc1` [Example 10a2, (S)-m-chloro-α-[[[(R)-p-(2-ethoxyethoxy)-α-methylphenethyl][(R)-β-hydroxyphenethyl]amino]methyl]benzyl alcohol], the response vs control in vivo at 3 µM, 3 µmol/kg in experiment [1] (setting [4]) was found to be 183%; in experiment [1] (setting [5]), 141%.
Consider `CCOCCOc1ccc(CCN(C[C@@H](O)c2cccc(Cl)c2)C[C@H](O)c2cccc(Cl)c2)cc1` [Example 11, (R)-m-chloro-α-[[[(S)-m-chloro-β-hydroxyphenethyl][p-(2-ethoxyethoxy)phenethyl]amino]methyl]benzyl alcohol], for which the values for the response vs control in vivo at 3 µM, 3 µmol/kg in experiment [1] (setting [4]) and in experiment [1] (setting [5]) were 181% and 140%, respectively.
As for `O[C@H](CN(CCc1ccc(OCCOCCc2ccccc2)cc1)C[C@H](O)c1cccc(Cl)c1)c1cccc(Cl)c1` [Example 12a, (R)-m-chloro-α-[[[(S)-m-chloro-β-hydroxyphenethyl]-[p-[2-(phenethoxy)ethoxy]phenethyl]amino]methyl]benzyl alcohol], the values for the response vs control in vivo at 1 µM, 1 µmol/kg in experiment [1] (setting [4]) and in experiment [1] (setting [5]) were 143% and 116%, respectively.
